In EPA's ToxValDB 9.5:

System: Rattus norvegicus
Details: short-term, duration: 28 days, oral, gavage, Sprague-Dawley

O=C(O)C(F)(F)C(F)(F)C(F)(F)C(F)(F)C(F)(F)C(F)(F)C(F)(F)C(F)(F)F [Perfluorononanoic acid]
5 mg/kg-day: LOEL (M, Nonneoplastic effects_Epididymis - Epithelium, apoptosis) | LOEL (M, Nonneoplastic effects_Epididymis - Hypospermia) | LOEL (M, Nonneoplastic effects_Lymph nodes - Mandibular, atrophy) | LOEL (M, Nonneoplastic effects_Lymph nodes - Mesenteric, atrophy) | LOEL (M, Nonneoplastic effects_Spleen - Atrophy)
0.625 mg/kg-day: LOEL (M, Clinical chemistry_Albumin/globulin ratio) | LOEL (M, Clinical chemistry_Cholesterol) | LOEL (M, Clinical chemistry_Free thyroxine) | LOEL (M, Clinical chemistry_Globulin) | LOEL (M, Clinical chemistry_Total bile acids) | LOEL (M, Clinical chemistry_Total protein) | LOEL (M, Clinical chemistry_Total thyroxine) | LOEL (M, Clinical chemistry_Triglycerides) | LOEL (M, Gene expression_Acox1) | LOEL (M, Gene expression_Acyl-CoA oxidase) | LOEL (M, Gene expression_Cyp2b1) | LOEL (M, Gene expression_Cyp2b2) | LOEL (M, Gene expression_Cyp4a1) | LOEL (M, Hematology_Reticulocytes) | LOEL (M, Nonneoplastic effects_Liver - Hepatocyte, cytoplasmic alteration) | LOEL (M, Nonneoplastic effects_Liver - Hepatocyte, hypertrophy) | LOEL (M, Organ weights_Liver - Absolute) | LOEL (M, Organ weights_Liver - Relative) | LOEL (M, Organ weights_R. adrenal gland - Absolute) | LOEL (M, Organ weights_R. kidney - Relative)
1.25 mg/kg-day: LOEL (M, Clinical chemistry_Alanine aminotransferase) | LOEL (M, Clinical chemistry_Albumin) | LOEL (M, Clinical chemistry_Alkaline phosphatase) | LOEL (M, Clinical chemistry_Aspartate aminotransferase) | LOEL (M, Clinical chemistry_Direct bilirubin) | LOEL (M, Clinical chemistry_Indirect bilirubin) | LOEL (M, Clinical chemistry_Sorbitol dehydrogenase) | LOEL (M, Clinical chemistry_Total bilirubin) | LOEL (M, Nonneoplastic effects_Liver - Hepatocyte, vacuolization cytoplasmic) | LOEL (M, Organ weights_Spleen - Absolute) | LOEL (M, Organ weights_Spleen - Relative) | LOEL (M, Organ weights_Thymus - Absolute) | LOEL (M, Organ weights_Thymus - Relative) | LOEL (M, Reproductive toxicity_Altered sperm parameters) | LOEL (M, body weight)
10 mg/kg-day: NOEL (M, Clinical chemistry_Creatinine kinase) | NOEL (M, Hematology_Erythrocytes) | NOEL (M, Hematology_Hematocrit) | NOEL (M, Hematology_Hemoglobin) | NOEL (M, Hematology_Platelets) | NOEL (M, Nonneoplastic effects_Kidney - Nephropathy, chronic progressive) | NOEL (M, Nonneoplastic effects_Nose - Olfactory epithelium, degeneration) | NOEL (M, Nonneoplastic effects_Nose - Olfactory epithelium, hyperplasia) | NOEL (M, Nonneoplastic effects_Nose - Olfactory epithelium, inflammation, suppurative) | NOEL (M, Nonneoplastic effects_Nose - Respiratory epithelium, hyperplasia) | NOEL (M, Nonneoplastic effects_Nose - Respiratory epithelium, inflammation, chronic active) | NOEL (M, Nonneoplastic effects_Spleen - Extramedullary hematopoiesis, increased) | NOEL (M, Nonneoplastic effects_Thymus - Lymphocyte, apoptosis) | NOEL (M, Nonneoplastic effects_Thyroid gland - Follicular cell hypertrophy)
2.5 mg/kg-day: LOEL (M, Clinical chemistry_Testosterone) | LOEL (M, Clinical chemistry_Thyroid stimulating hormone) | LOEL (M, Clinical chemistry_Total triiodothyronine) | LOEL (M, Hematology_Mean corpuscular hemoglobin concentration) | LOEL (M, Hematology_Mean corpuscular volume) | LOEL (M, Nonneoplastic effects_Bone marrow - Hypocellularity) | LOEL (M, Nonneoplastic effects_Epididymis - Duct, exfoliated germ cell) | LOEL (M, Nonneoplastic effects_Forestomach - Epithelium, hyperplasia) | LOEL (M, Nonneoplastic effects_Forestomach - Inflammation, chronic active) | LOEL (M, Nonneoplastic effects_Liver - Hepatocyte, Necrosis) | LOEL (M, Nonneoplastic effects_Testes - Germinal epithelium, degeneration) | LOEL (M, Nonneoplastic effects_Testes - Interstitial cell, atrophy) | LOEL (M, Nonneoplastic effects_Testes - Seminiferous tubule, spermatid retention) | LOEL (M, Nonneoplastic effects_Thymus - Atrophy) | LOEL (M, Organ weights_R. adrenal gland - Relative) | LOEL (M, Organ weights_R. kidney - Absolute) | LOEL (M, Organ weights_R. testis - Absolute) | LOEL (M, Organ weights_Thyroid gland - Absolute) | LOEL (M, Organ weights_Thyroid gland - Relative)
6.25 mg/kg-day: LOEL (F, body weight)
25 mg/kg-day: NOEL (F, Organ weights_Thymus - Relative) | NOEL (F, Organ weights_Thyroid gland - Absolute) | NOEL (F, Organ weights_Thyroid gland - Relative)
